Laboratory results: ChEMBL document CHEMBL3045239, “Synthesis and antimicrobial evaluation of novel benzo[b]thiophenes comprising -lactam nucleus” (2012)

Key:
Assay type in all cases: functional
Escherichia coli = assay: Antimicrobial activity against Escherichia coli at 1 mg/ml after 24 hr by agar well diffusion method; settings: read-out: DIZ
Staphylococcus aureus = assay: Antimicrobial activity against Staphylococcus aureus at 1 mg/ml after 24 hr by agar well diffusion method; settings: read-out: DIZ
Candida albicans = assay: Antimicrobial activity against Candida albicans at 200 ug/ml after 7 days by agar plate method; settings: 168 h
Bacillus subtilis = assay: Antimicrobial activity against Bacillus subtilis at 1 mg/ml after 24 hr by agar well diffusion method; settings: read-out: DIZ
Micrococcus luteus = assay: Antimicrobial activity against Micrococcus luteus at 1 mg/ml after 24 hr by agar well diffusion method; settings: read-out: DIZ
Pseudomonas aeruginosa = assay: Antimicrobial activity against Pseudomonas aeruginosa at 1 mg/ml after 24 hr by agar well diffusion method; settings: read-out: DIZ
Fusarium solani = assay: Antimicrobial activity against Fusarium solani at 200 ug/ml after 7 days by agar plate method; settings: 168 h
Trichophyton longifusum = assay: Antimicrobial activity against Trichophyton longifusum at 200 ug/ml after 7 days by agar plate method; settings: 168 h
Microsporum canis = assay: Antimicrobial activity against Arthroderma otae at 200 ug/ml after 7 days by agar plate method; settings: 168 h

| SMILES | zone of inhibition at 1000 µg/mL (Escherichia coli) [mm] | zone of inhibition at 1000 µg/mL (Staphylococcus aureus) [mm] | inhibition at 200 µg/mL (Candida albicans) [%] | zone of inhibition at 1000 µg/mL (Bacillus subtilis) [mm] | zone of inhibition at 1000 µg/mL (Micrococcus luteus) [mm] | zone of inhibition at 1000 µg/mL (Pseudomonas aeruginosa) [mm] | inhibition at 200 µg/mL (Fusarium solani) [%] | inhibition at 200 µg/mL (Trichophyton longifusum) [%] | inhibition at 200 µg/mL (Microsporum canis) [%] |
| --- | --- | --- | --- | --- | --- | --- | --- | --- | --- |
| COc1ccc([C@@H]2[C@H](Oc3ccc(Cl)cc3Cl)C(=O)N2c2sc3c(c2C#N)C=C(/C=C/c2c(C)nn(-c4ccccc4)c2Cl)CC3(C)C)cc1 (relative stereo) | 15.6 | 11.3 | 30 | 12.5 | < 10 | 11.9 | 25 |  |  |
| Cc1nn(-c2ccccc2)c(Cl)c1/C=C/C1=Cc2c(sc(N3C(=O)[C@@H](Oc4ccc(Cl)cc4Cl)[C@H]3c3ccc(Cl)cc3)c2C#N)C(C)(C)C1 (relative stereo) | 13.9 | 10.6 |  | 12.4 | < 10 | 11.2 |  | 35 |  |
| Clc1ccc(COC(Cn2ccnc2)c2ccc(Cl)cc2Cl)c(Cl)c1 (stereo not given) [MICONAZOLE] |  |  | 90 |  |  |  | 90 | 100 | 90 |
| Cc1nn(-c2ccccc2)c(Cl)c1/C=C/C1=Cc2c(sc(N3C(=O)[C@@H](Oc4ccc(Cl)cc4Cl)[C@H]3c3ccccc3O)c2C#N)C(C)(C)C1 (relative stereo) | 17.6 | 12.3 | 91 | 18.9 | < 10 | 11.6 |  | 89 |  |
| Cc1nn(-c2ccccc2)c(Cl)c1/C=C/C1=Cc2c(sc(N3C(=O)[C@@H](Oc4ccc(Cl)cc4Cl)[C@H]3c3ccccc3Cl)c2C#N)C(C)(C)C1 (relative stereo) | 17.8 | 11.3 | 94 | 18.7 | 13.1 | 10.6 | 40 | 92 |  |
| O=C(N[C@H](CO)[C@H](O)c1ccc([N+](=O)[O-])cc1)C(Cl)Cl [CHLORAMPHENICOL] | 17 | 16.4 |  | 18.8 | 17.2 | 19.6 |  |  |  |
| Cc1nn(-c2ccccc2)c(Cl)c1/C=C/C1=Cc2c(sc(N3C(=O)[C@@H](Oc4ccc(Cl)cc4Cl)[C@H]3c3ccc(Cl)c(Cl)c3)c2C#N)C(C)(C)C1 (relative stereo) | 12 | < 10 |  | 11.2 | < 10 | 10.8 |  |  |  |
| Cc1nn(-c2ccccc2)c(Cl)c1/C=C/C1=Cc2c(sc(N3C(=O)[C@@H](Oc4ccc(Cl)cc4Cl)[C@H]3c3ccc(N(C)C)cc3)c2C#N)C(C)(C)C1 (relative stereo) | 14.6 | < 10 |  | < 10 | < 10 | < 10 |  |  |  |
| Cc1nn(-c2ccccc2)c(Cl)c1/C=C/C1=Cc2c(sc(N3C(=O)[C@@H](Oc4ccc(Cl)cc4Cl)[C@H]3c3ccccc3)c2C#N)C(C)(C)C1 (relative stereo) | 14.2 | < 10 |  | 11.7 | < 10 | 11.7 |  | 40 | 50 |
| COc1ccc([C@@H]2[C@H](Oc3ccc(Cl)cc3Cl)C(=O)N2c2sc3c(c2C#N)C=C(/C=C/c2c(C)nn(-c4ccccc4)c2Cl)CC3(C)C)cc1O (relative stereo) | 13.7 | < 10 |  | < 10 | < 10 | < 10 |  |  |  |
| COc1cc([C@@H]2[C@H](Oc3ccc(Cl)cc3Cl)C(=O)N2c2sc3c(c2C#N)C=C(/C=C/c2c(C)nn(-c4ccccc4)c2Cl)CC3(C)C)cc(OC)c1OC | 12.9 | 10.6 | 50 | 11.6 | < 10 | 11.7 |  |  |  |
| C=CC1=C(C(=O)O)N2C(=O)[C@@H](NC(=O)/C(=N\OCC(=O)O)c3csc(N)n3)[C@H]2SC1 [CEFIXIME] | 30 | 36.1 |  | 28.7 | 34.1 | 17.8 |  |  |  |
| Cc1nn(-c2ccccc2)c(Cl)c1/C=C/C1=Cc2c(sc(N3C(=O)[C@@H](Oc4ccc(Cl)cc4Cl)[C@H]3c3ccc([N+](=O)[O-])cc3)c2C#N)C(C)(C)C1 (relative stereo) | 14 | < 10 |  | 11.2 | < 10 | 12.1 |  |  |  |
